According to patent publication US20080255158A1, “Fungicidal Mixtures” (BASF Aktiengesellschaft, priority 2004, published 2008):

Tested on: Cochliobolus miyabeanus
Assay: Activity against brown spot of rice caused by Cochliobolus miyabeanus, protective application
Type: in vivo
Conditions: individual active compound, 16 ppm in the spray liquor, rice leaves, 6 days after inoculation
Description: The active compounds, separately or jointly, were prepared as a stock solution comprising 0.25% by weight of active compound in acetone or DMSO. 1% by weight of the emulsifier Uniperol® EL (wetting agent having emulsifying and dispersing action based on ethoxylated alkylphenols) was added to this solution, and the mixture was appropriately diluted with water to the desired concentration.
Use example—Activity against brown spot of rice caused by Cochliobolus miyabeanus, protective application
Leaves of rice seedlings of the cultivar “Tai-Nong 67” which had been grown in pots were sprayed to runoff point with an aqueous suspension having the concentration of active compound stated below. The next day, the plants were inoculated with an aqueous spore suspension of Cochliobolus miyabeanus. The test plants were then placed in climatized chambers at 22-24° C. and 95-99% relative atmospheric humidity for 6 days. The extent of the development of infection on the leaves was then determined visually.
Evaluation is carried out by determining the infected leaf areas in percent. These percentages were converted into efficacies.
The efficacy (E) is calculated as follows using Abbot's formula: […]
The expected efficacies of the mixtures of active compounds are determined using Colby's formula [R. S. Colby, Weeds, 15, 20-22 (1967)] and are compared with the observed efficacies. […]

CC1CCN(c2c(-c3c(F)cc(F)cc3F)c(Cl)nc3ncnn23)CC1 [compound I, 5-chloro-7-(4-methylpiperidin-1-yl)-6-(2,4,6-trifluorophenyl)[1,2,4]tri-azolo[1,5-a]pyrimidine]
Efficacy in % of the untreated control: 54%
